Results reported in patent US6472348B1, “Pyridone derivatives and herbicides” (Kumiai Chemical Industry Co., Ltd., priority 1996, dated 2002).

What was measured:
Assay type in all cases: in vivo
slender amaranth (Am) [1] = experiment: Test Example 2: herbicidal effects by upland field soil treatment; settings: 100 g of the active ingredient per 10 ares, evaluated on the 21st day after application;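 note: grade of growth control; 5 = at least 90%; 4 = 70 to 90%; 3 = 50 to 70%; 2 = 30 to 50%; 1 = 10 to 30%; 0 = under 10%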
Description: (§1) (Test on Herbicidal Effects by Upland Field Soil Treatment)

Digitaria ciliaris (Di) = experiment: as above; settings: 100 g of the active ingredient per 10 ares, evaluated on the 21st day after application;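 note: grade of growth control; 5 = at least 90%; 4 = 70 to 90%; 3 = 50 to 70%; 2 = 30 to 50%; 1 = 10 to 30%; 0 = under 10%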
Description: as §1

barnyardgrass (Ec) [2] = experiment: as above; settings: 100 g of the active ingredient per 10 ares, evaluated on the 21st day after application
Description: as §1

rice flatsedge (Ci) [3] = experiment: as above; settings: 100 g of the active ingredient per 10 ares, evaluated on the 21st day after application
Description: as §1

pale smartweed (Po) [4] = experiment: as above; settings: 100 g of the active ingredient per 10 ares, evaluated on the 21st day after application
Description: as §1

[5] = tested on: common lambsquarters (Ch); experiment: as above; settings: 100 g of the active ingredient per 10 ares, evaluated on the 21st day after application
Description: as §1

corn (Ze) = experiment: Test Example 7: crop plant selectivity by upland field soil treatment (corn), phytotoxicity; design: scale not given here; settings: dose 6.3 g ai/10a, 21st day after application
Protocol: (§2) (Test on Crop Plant Selectivity by Upland Field Soil Treatment)
(§3) In a plastic pot (surface area: 600 cm^2) filled with sand, corn (Ze), green foxtail (Se), pale smartweed (Po), slender amaranth (Am), common lambsquarters (Ch) and China jute (Ab) were sown and covered with soil. […] The plants were then cultured in a green house, and the evaluation of the herbicidal effects and phytotoxicity was conducted on the 21st day after the application in accordance with the standards as identified in Table 47.

slender amaranth (Am) [6] = experiment: Test Example 7: crop plant selectivity by upland field soil treatment (corn), herbicidal effects; design: scale not given here; settings: dose 6.3 g ai/10a, 21st day after application
Protocol: as §2, §3

green foxtail (Se) [7] = experiment: as above; design: scale not given here; settings: dose 6.3 g ai/10a, 21st day after application
Protocol: as §2, §3

China jute (Ab) [8] = experiment: as above; design: scale not given here; settings: dose 6.3 g ai/10a, 21st day after application
Protocol: as §2, §3

pale smartweed (Po) [9] = experiment: as above; design: scale not given here; settings: dose 6.3 g ai/10a, 21st day after application
Protocol: as §2, §3

[10] = tested on: common lambsquarters (Ch); experiment: as above; design: scale not given here; settings: dose 6.3 g ai/10a, 21st day after application
Protocol: as §2, §3

slender amaranth (Am) [11] = experiment: Test Example 6: crop plant selectivity by upland field soil treatment (soybean), herbicidal effects; design: scale not given here; settings: dose 6.3 g ai/10a, 21st day after application
Protocol: as §2
(§4) In a plastic pot (surface area: 600 cm^2) filled with sand, soybean (Gl), Diaitaria ciliaris (Di), green foxtail (Se), Johnsongrass (So), pale smartweed (Po), slender amaranth (Am), common lambsquarters (Ch) and China jute (Ab) were sown and covered with soil. […] The plants were then cultured in a green house, and the evaluation of the herbicidal effects and phytotoxicity was conducted on the 21st day after the application in accordance with the standards as identified in Table 47. Symbol—represents “not tested”.

green foxtail (Se) [12] = experiment: as above; design: scale not given here; settings: dose 6.3 g ai/10a, 21st day after application
Protocol: as §2, §4

China jute (Ab) [13] = experiment: as above; design: scale not given here; settings: dose 6.3 g ai/10a, 21st day after application
Protocol: as §2, §4

pale smartweed (Po) [14] = experiment: as above; design: scale not given here; settings: dose 6.3 g ai/10a, 21st day after application
Protocol: as §2, §4

[15] = tested on: common lambsquarters (Ch); experiment: as above; design: scale not given here; settings: dose 6.3 g ai/10a, 21st day after application
Protocol: as §2, §4

barnyardgrass (Ec) [16] = experiment: Test Example 1: herbicidal effects by paddy field soil treatment; settings: 100 g of the active ingredient per 10 ares, 21st day after the application, index 0-5 of Table 47;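 note: grade of growth control; 5 = at least 90%; 4 = 70 to 90%; 3 = 50 to 70%; 2 = 30 to 50%; 1 = 10 to 30%; 0 = under 10%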
Summary of the method: (§5)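 Greenhouse pot test in flooded paddy soil, dosed at 100 g a.i. per 10 ares; effect scored on day 21.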

bulrush (Sc) = experiment: as above; settings: 100 g of the active ingredient per 10 ares, 21st day after the application, index 0-5 of Table 47;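 note: grade of growth control; 5 = at least 90%; 4 = 70 to 90%; 3 = 50 to 70%; 2 = 30 to 50%; 1 = 10 to 30%; 0 = under 10%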
Summary of the method: as §5

monochoria (Mo) = experiment: as above; settings: 100 g of the active ingredient per 10 ares, 21st day after the application, index 0-5 of Table 47
Summary of the method: as §5

soybean (Gl) = experiment: Test Example 6: crop plant selectivity by upland field soil treatment (soybean), phytotoxicity; design: scale not given here; settings: dose 6.3 g ai/10a, 21st day after application
Protocol: as §2, §4

cotton (Go) = experiment: Test Example 4: crop plant selectivity by upland field soil treatment (cotton), phytotoxicity; design: scale not given here; settings: dose 6.3 g ai/10 a, evaluated 21st day after application
Protocol: as §2
(§6) In a plastic pot (surface area: 600 cm^2) filled with sand, cotton (Go), Diaitaria ciliaris (Di), green foxtail (Se), pale smartweed (Po), slender amaranth (Am), common lambsquarters (Ch) and China jute (Ab) were sown and covered with soil. […] The plants were then cultured in a green house, and the evaluation of the herbicidal effects and phytotoxicity was conducted on the 21st day after the application in accordance with the standards as identified in Table 47. Symbol—represents “not tested”.

slender amaranth (Am) [17] = experiment: Test Example 3: herbicidal effects by upland field foliage treatment; design: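 grade of growth control; 5 = at least 90%; 4 = 70 to 90%; 3 = 50 to 70%; 2 = 30 to 50%; 1 = 10 to 30%; 0 = under 10%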
Summary of the method: (§7)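 Scores reflect herbicidal effect graded by standards on the 14th day after foliage treatment of weeds grown 2 weeks in a greenhouse.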

Diaitaria ciliaris (Di) = experiment: as above; design: scale not given here
Summary of the method: as §7

barnyardgrass (Ec) [18] = experiment: as above; design: scale not given here
Summary of the method: as §7

rice flatsedge (Ci) [19] = experiment: as above; design: scale not given here
Summary of the method: as §7

pale smartweed (Po) [20] = experiment: as above; design: scale not given here
Summary of the method: as §7

[21] = tested on: common lambsquarters (Ch); experiment: as above; design: scale not given here
Summary of the method: as §7

slender amaranth (Am) [22] = experiment: Test Example 5: crop plant selectivity by upland field soil treatment (wheat), herbicidal effects; design: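 grade of growth control; 5 = at least 90%; 4 = 70 to 90%; 3 = 50 to 70%; 2 = 30 to 50%; 1 = 10 to 30%; 0 = under 10%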; settings: dose 6.3 g ai/10a, 21st day after application
Summary of the method: (§8)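 Pre-emergence soil treatment, sand-filled pots, seeds covered with soil; greenhouse culture; visual scoring of weed control and wheat injury at day 21 post-application.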

green foxtail (Se) [23] = experiment: as above; design: scale not given here; settings: dose 6.3 g ai/10a, 21st day after application
Summary of the method: as §8

China jute (Ab) [24] = experiment: as above; design: scale not given here; settings: dose 6.3 g ai/10a, 21st day after application
Summary of the method: as §8

pale smartweed (Po) [25] = experiment: as above; design: scale not given here; settings: dose 6.3 g ai/10a, 21st day after application
Summary of the method: as §8

[26] = tested on: common lambsquarters (Ch); experiment: as above; design: scale not given here; settings: dose 6.3 g ai/10a, 21st day after application
Summary of the method: as §8

slender amaranth (Am) [27] = experiment: Test Example 4: crop plant selectivity by upland field soil treatment (cotton), herbicidal effects; design: scale not given here; settings: dose 6.3 g ai/10 a, evaluated 21st day after application
Protocol: as §2, §6

green foxtail (Se) [28] = experiment: as above; design: scale not given here; settings: dose 6.3 g ai/10 a, evaluated 21st day after application
Protocol: as §2, §6

China jute (Ab) [29] = experiment: as above; design: scale not given here; settings: dose 6.3 g ai/10 a, evaluated 21st day after application
Protocol: as §2, §6

pale smartweed (Po) [30] = experiment: as above; design: scale not given here; settings: dose 6.3 g ai/10 a, evaluated 21st day after application
Protocol: as §2, §6

[31] = tested on: common lambsquarters (Ch); experiment: as above; design: scale not given here; settings: dose 6.3 g ai/10 a, evaluated 21st day after application
Protocol: as §2, §6

wheat (Tr) = experiment: Test Example 5: crop plant selectivity by upland field soil treatment (wheat), phytotoxicity; design: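 grade of crop injury; 5 = at least 90%; 4 = 70 to 90%; 3 = 50 to 70%; 2 = 30 to 50%; 1 = 10 to 30%; 0 = under 10%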; settings: dose 6.3 g ai/10a, 21st day after application
Summary of the method: as §8

[32] = 100 g of the active ingredient per 10 ares, evaluated on the 14th day after treatment
[33] = 100 g active ingredient per 10 ares, evaluated 14th day after treatment

| SMILES | Herbicidal effects Am (slender amaranth (Am) [1]) | Herbicidal effects Di (Digitaria ciliaris (Di)) | Herbicidal effects Ec (barnyardgrass (Ec) [2]) | Herbicidal effects Ci (rice flatsedge (Ci) [3]) | Herbicidal effects Po (pale smartweed (Po) [4]) | Herbicidal effects Ch [5] | Phytotoxicity Ze (corn (Ze)) | Herbicidal effects Am (slender amaranth (Am) [6]) | Herbicidal effects Se (green foxtail (Se) [7]) | Herbicidal effects Ab (China jute (Ab) [8]) | Herbicidal effects Po (pale smartweed (Po) [9]) | Herbicidal effects Ch [10] | Herbicidal effects Am (slender amaranth (Am) [11]) | Herbicidal effects Se (green foxtail (Se) [12]) | Herbicidal effects Ab (China jute (Ab) [13]) | Herbicidal effects Po (pale smartweed (Po) [14]) | Herbicidal effects Ch [15] | Herbicidal effects Ec (barnyardgrass (Ec) [16]) | Herbicidal effects Sc (bulrush (Sc)) | Herbicidal effects Mo (monochoria (Mo)) | further results |
| --- | --- | --- | --- | --- | --- | --- | --- | --- | --- | --- | --- | --- | --- | --- | --- | --- | --- | --- | --- | --- | --- |
| Cn1c(C(F)(F)F)ccc(-c2cc(OCC(F)F)c(Cl)cc2F)c1=O [1-173] | 5 | 5 | 5 | 5 | 5 | 5 | 1 | 5 | 5 | 5 | 5 | 5 | 5 | 5 | 5 | 5 | 5 | 5 | 5 | 5 | Phytotoxicity Gl (soybean (Gl)): 1; Phytotoxicity Go (cotton (Go)): 1; Herbicidal effects Am (slender amaranth (Am) [17]; [32]): 5; Herbicidal effects Di (Diaitaria ciliaris (Di); [32]): 5; Herbicidal effects Ec (barnyardgrass (Ec) [18]; [32]): 5; Herbicidal effects Ci (rice flatsedge (Ci) [19]; [32]): 5; Herbicidal effects Po (pale smartweed (Po) [20]; [32]): 5; Herbicidal effects Ch [21, 32]: 5; Herbicidal effects Am (slender amaranth (Am) [22]): 5; Herbicidal effects Se (green foxtail (Se) [23]): 5; Herbicidal effects Ab (China jute (Ab) [24]): 5; Herbicidal effects Po (pale smartweed (Po) [25]): 5; Herbicidal effects Ch [26]: 5; Herbicidal effects Am (slender amaranth (Am) [27]): 5; Herbicidal effects Se (green foxtail (Se) [28]): 5; Herbicidal effects Ab (China jute (Ab) [29]): 5; Herbicidal effects Po (pale smartweed (Po) [30]): 5; Herbicidal effects Ch [31]: 5; Phytotoxicity Tr (wheat (Tr)): 1 |
| COc1cc(Cl)cc(F)c1-c1ccc(C(F)(F)F)n(C)c1=O [1′-1] | 5 | 5 | 5 | 5 | 5 | 5 | 1 | 5 | 5 | 5 | 5 | 5 | 5 | 5 | 5 | 5 | 5 | 5 | 5 | 5 | Phytotoxicity Gl (soybean (Gl)): 1; Phytotoxicity Go (cotton (Go)): 0; Herbicidal effects Am (slender amaranth (Am) [17]; [33]): 5; Herbicidal effects Di (Diaitaria ciliaris (Di); [33]): 5; Herbicidal effects Ec (barnyardgrass (Ec) [18]; [33]): 5; Herbicidal effects Ci (rice flatsedge (Ci) [19]; [33]): 5; Herbicidal effects Po (pale smartweed (Po) [20]; [33]): 5; Herbicidal effects Ch [21, 33]: 5; Herbicidal effects Am (slender amaranth (Am) [22]): 5; Herbicidal effects Se (green foxtail (Se) [23]): 5; Herbicidal effects Ab (China jute (Ab) [24]): 5; Herbicidal effects Po (pale smartweed (Po) [25]): 5; Herbicidal effects Ch [26]: 5; Herbicidal effects Am (slender amaranth (Am) [27]): 5; Herbicidal effects Se (green foxtail (Se) [28]): 5; Herbicidal effects Ab (China jute (Ab) [29]): 5; Herbicidal effects Po (pale smartweed (Po) [30]): 5; Herbicidal effects Ch [31]: 5; Phytotoxicity Tr (wheat (Tr)): 1 |
